Publication PMC10108740 (Journal of Medicinal Chemistry, 2023)
Read-outs that look alike come from different tables or passages of the source.

How the values were obtained:
[1] = test system: SARS-CoV-2 WA1 (USA-WA1/2020); set-up: method as in Schooley et al.[24]; conditions: Calu-3 cells, ref Schooley et al.[24]; cited from earlier work
[2] = test system: Calu-3 cells; conditions: cited from earlier work
[3] = test system: SARS-CoV-2 (WA-1); assay: Antiviral immunofluorescence assay, SARS-CoV-2 WA1 in Vero-TMPRSS2 cells; type: cell-based; conditions: WA-1, Vero-TMPRSS2 cells, immunofluorescence, 38 hpi; for EC50: read-out: EC50
[4] = test system: Huh7.5 cells; assay: Cell viability assay (CellTiter-Glo), Huh7.5 cells; conditions: uninfected Huh7.5 cells, 48h
[5] = test system: Calu-3 cells; assay: Cell viability assay (CellTiter-Glo), Calu-3 cells; conditions: uninfected Calu-3 cells, 44h
[6] = test system: SARS-CoV-2 (WA-1); assay: Antiviral immunofluorescence assay, SARS-CoV-2 WA1 in Huh7.5 cells; type: cell-based; conditions: WA-1, Huh7.5 cells, immunofluorescence, 48 hpi; for EC50: read-out: EC50; for EC90: read-out: EC90
[7] = test system: SARS-CoV-2 WA1 (USA-WA1/2020); assay: Antiviral immunofluorescence assay, SARS-CoV-2 WA1 in Calu-3 cells; type: cell-based; conditions: for EC90 / EC50: WA1, Calu-3 cells, immunofluorescence, 44 hpi, mean ± SD; for EC50: read-out: EC50
[8] = test system: Vero-TMPRSS2 cells; assay: Cell viability assay (CellTiter-Glo), Vero-TMPRSS2 cells; conditions: uninfected Vero-TMPRSS2 cells, 38h
Experimental: Cells were seeded as per SARS-CoV-2 infection studies in opaque walled 96-well cell culture plates and incubated overnight for Huh7.5 and Vero-TMPRSS2 cells and for an additional 24h for Calu-3 cells. Compounds or controls were added at the indicated concentrations. Cells were incubated for 48h for Huh7.5 cells, 40–44h for Calu-3 cells, or 30–32h for Vero-TMPRSS2 cells at 37 °C and 5% CO2, an equal volume of CellTiter-Glo reagent (Cat. #G7570, Promega) or CellTiter-Glo 2.0 reagent (Cat. #G9241, Promega) was added and mixed, and luminescence was recorded on a Veritas Microplate Luminometer (Turner BioSystems) according to manufacturer recommendations. Percent viability was calculated compared to DMSO controls, and CC50 values were calculated using Prism 9.
Calu-3 cells were treated for 44h (A), Huh7.5 cells were treated for 48h (B), and Vero-
TMPRSS2 cells were treated for 38h (C) as in infection assays for each cell type. Cell viability
was measured by CellTiter-Glo assay and reported as % cell viability relative to DMSO controls.
Best fit curves calculated in Graphpad Prism 9 were used
to compute cytotoxic concentration 50% (CC50) values in Tables 1-3.

[9] = test system: human pluripotent stem cell-derived lung cells; assay: Cytotoxicity by relative number of nuclei, human pluripotent stem cell-derived lung cells; conditions: PSC-lung cells, relative number of nuclei (IF) vs vehicle-treated wells
[10] = test system: SARS-CoV-2 (WA-1); assay: Antiviral immunofluorescence assay, SARS-CoV-2 WA1 in human pluripotent stem cell-derived lung cells; type: cell-based; conditions: WA-1, PSC-lung cells (ALDA 31616 and H9), 24 hpi

## CCC(CC)COC(=O)[C@H](C)N[P@](=O)(OC[C@H]1O[C@@](C#N)(c2ccc3c(N)ncnn23)[C@H](O)[C@@H]1O)Oc1ccccc1 [RDV, remdesivir]
[1]
  EC50: 230 nM
  EC90: 310 nM
[2]; Calu-3 cells, ref Schooley et al.[24]
  CC50: > 100000 nM

## N#C[C@@]1(c2ccc3c(N)ncnn23)O[C@H](CO)[C@@H](O)[C@H]1O [RVn, GS-441524]
[2]
  CC50: > 100000 nM

## ((2R,3S,4R,5R)-5-(4-Aminopyrrolo[2,1-f][1,2,4]triazin-7-yl)-5-cyano-3,4-dihydroxytetrahydrofuran-2-yl)methyl ((R)-2-((3-fluoro-4-methoxybenzyl)oxy)-7-(tetradec-5-en-1-yloxy)heptyl) hydrogen phosphate [Compound 10g]
[3]
  EC90: 554 ± 54 nM
  EC50: 300 ± 38 nM
[4]
  CC50: > 100000 nM
[5]
  CC50: 58700 nM
[6]
  EC50: 54 ± 16 nM
  EC90: 95 ± 27 nM
[7]; 3-fluoro-4-methoxybenzyl at sn-2 versus unsubstituted benzyl
  fold better potency: 2–3 fold
[7]; Calu-3 cells, based on EC50
  fold more active than RDV: 3.3 fold
[7]
  EC90: 149 ± 117 nM
  EC50: 70 ± 3 nM
[8]
  CC50: > 100000 nM
[9]
  CC50: > 20000 nM
[10]
  EC50: 82 ± 13 nM
  EC90: 175 ± 16 nM

## ((2R,3S,4R,5R)-5-(4-Aminopyrrolo[2,1-f][1,2,4]triazin-7-yl)-5-cyano-3,4-dihydroxytetrahydrofuran-2-yl)methyl ((R)-2-(benzyloxy)-7-(tetradec-5-en-1-yloxy)heptyl) hydrogen phosphate [Compound 10a]
[3]
  EC90: 570 ± 54 nM
  EC50: 293 ± 20 nM
[4]
  CC50: > 100000 nM
[5]
  CC50: 79200 nM
[6]
  EC50: 109 ± 55 nM
  EC90: 224 ± 100 nM
[7]
  EC90: 324 ± 127 nM
  EC50: 193 ± 58 nM
[8]
  CC50: > 100000 nM
[9]
  CC50: > 20000 nM
[10]
  EC50: 267 ± 118 nM
  EC90: 555 ± 250 nM
